Values after ≈ are worked out from the molar mass of the structure shown. Structures can show the parent of a compound that is named as a salt.
System: human platelets
Experiment: In vitro inhibition of ADP-induced human platelet aggregation in platelet-rich plasma (aggregometer method of Born)
Type: cell-based
Settings: human PRP, 0.5 mcg/mL ADP, about three minutes preincubation
Method: The aggregometer method of Born, G. V. R., J. Physiol., (London), 162, 67-68, (1962) as modified by Mustard, J. F., et al., J. Lab. Clin. Med., 64, 548-599, (1964) Was used to assess the in vitro activity of the various compounds as to the inhibition of adenosine diphosphate (ADP) and collagen-induced platelet aggregation. The human volunteer donor's arm is cleansed with 70% ethyl alcohol. A sterile 20 ml syringe and needle are used to withdraw 20 ml of blood. The blood is immediately added to a test tube containing 3.8% sodium citrate to prevent clotting (1 part citrate to 9 parts blood).
Platelet rich plasma (PRP) was separated by centrifugation for 10 minutes at 1000 rpm (140×g) from citrated (3.8%) human blood. All glassware used for preparation of PRP is silicon treated. ADP in final concentration of 0.5 mcg/mL or 0.05 mL of a collagen suspension prepared according to the method described by Evans, G., et al., J. Exp. Med., 128, 877-894, (1968) was used to induce aggregation. The various compounds tested were dissolved in dimethylsulfoxide (DMSO) so that 5 mcl added to the platelet rich plasma would yield the desired test concentration. Vehicle control trials were done and compared with aggregation induced in platelet rich plasma containing various concentrations of the test compounds. Dose response curves were obtained and Inhibitor Concentration (IC50) values calculated.
The compounds listed in Table 1 were evaluated as inhibitors of human platelet aggregation in vitro in platelet-rich-plasma (PRP) using […] ADP as the inducing agent. The PRP was incubated with drug for about three minutes prior to the addition of the agonist. The extent of aggregation in the presence of various concentrations of test compounds was compared with that in vehicle controls. Dose-response curves were obtained and IC50 values determined.

SMILES | IC50 [µg/mL]
CCOC(=O)C(=Cc1cccc(OCC(=O)OC(C)(C)C)c1)c1nc(-c2ccccc2)c(-c2ccccc2)o1 [Compound 7a, (E) and (Z)-Ethyl α-[[3-[[(1,1-dimethylethoxy)carbonyl]methoxyl]phenyl]methylene]-4,5-diphenyl-2-oxazoleacetate] | > 32
CCOC(=O)/C(=C\c1cccc(OCC(=O)OC)c1)c1nc(-c2ccccc2)c(-c2ccccc2)o1 [Compound 7b, (Z)-Ethyl-α-[[3-(2-methoxy-2-oxoethoxy)phenyl]methylene]-4,5-diphenyl-2-oxazole acetate] | 10
CCOC(=O)/C(=C/c1cccc(OCC(=O)OC)c1)c1nc(-c2ccccc2)c(-c2ccccc2)o1 [Compound 7c, (E)-Ethyl α-[[3-(2-methoxy-2-oxoethoxy)phenyl]methylene]-4,5-diphenyl-2-oxazole acetate] | 1
COC(=O)COc1cccc(C=C(C(=O)OC)c2nc(-c3ccccc3)c(-c3ccccc3)o2)c1 [Compound 7d, Methyl (E) and (Z) α-[[3-(2-methoxy-2-oxoethoxy)phenyl]methylene]-4,5-diphenyl-2-oxazoleacetate] | 0.5 (≈ 1.06 µM)
CC(C)OC(=O)C(=Cc1cccc(OCC(=O)OC(C)(C)C)c1)c1nc(-c2ccccc2)c(-c2ccccc2)o1 [Compound 7e, (E) and (Z)-1-methylethyl α-[[3-[2-(1,1,-dimethylethoxy)-2-oxoethoxy]phenyl]-methylene]-4,5-diphenyl-2-oxazoleacetate] | > 32
COC(=O)COc1cccc(C=C(C(=O)OC(C)C)c2nc(-c3ccccc3)c(-c3ccccc3)o2)c1 [Compound 7f, (E) and (Z) 1-Methylethyl α-[[3-[2-(methoxy-2-oxoethoxy)phenyl]methylene]-4,5-diphenyl-2-oxazoleacetate] | 5 (≈ 10 µM)
COC(=O)COc1cccc(C=C(C(N)=O)c2nc(-c3ccccc3)c(-c3ccccc3)o2)c1 [Compound 7g, (E) and (Z) Methyl [3-[3-amino-2-(4,5-diphenyl)-2-oxazolyl]-3-oxo-1-propenyl]phenoxy]acetate] | 2.5 (≈ 5.5 µM)
CNC(=O)C(=Cc1cccc(OCC(=O)OC)c1)c1nc(-c2ccccc2)c(-c2ccccc2)o1 [Compound 7h, (E) and (Z) Methyl [3-[2-(4,5-diphenyl-2-oxazolyl)-3-methylamino-3-oxo-propenyl]phenoxy]acetate] | 1.3 (≈ 2.77 µM)
COC(=O)COc1cccc(/C=C(\C(=O)N(C)C)c2nc(-c3ccccc3)c(-c3ccccc3)o2)c1 [Compound 7i, (Z)-Methyl [3-[3-(dimethylamino)-2-(4,5-diphenyl-2-oxazolyl)-3-oxo-1-propenyl]phenoxy]acetate] | > 32
CCOC(=O)C(=Cc1cccc(OCC(=O)O)c1)c1nc(-c2ccccc2)c(-c2ccccc2)o1 [Compound 8a, (E) and (Z) Ethyl α-[[3-carboxymethoxy)phenyl]methylene]-4,5-diphenyl-2-oxazole acetate] | 0.17
O=C(O)COc1cccc(C=C(C(=O)O)c2nc(-c3ccccc3)c(-c3ccccc3)o2)c1 [Compound 8b] | 9 (≈ 20.4 µM)
CNC(=O)C(=Cc1cccc(OCC(=O)O)c1)c1nc(-c2ccccc2)c(-c2ccccc2)o1 [Compound 8d, (E) and (Z) [3-[2-(4,5-Diphenyl-2-oxazolyl)-3-(methylamino)-3-oxo-propenyl]phenoxy]acetic acid] | 7 (≈ 15.4 µM)
CN(C)C(=O)/C(=C\c1cccc(OCC(=O)O)c1)c1nc(-c2ccccc2)c(-c2ccccc2)o1 [Compound 8e, (Z)-[3-[3-(Dimethylamino)-2-(4,5-diphenyl-2-oxazolyl)-3-oxo-1-propenyl]phenoxy]acetic acid] | 5.8 (≈ 12.4 µM)
CCOC(=O)C(Cc1cccc(OCC(=O)OC(C)(C)C)c1)c1nc(-c2ccccc2)c(-c2ccccc2)o1 (stereo not shown) [Compound 9a] | > 32
CCOC(=O)C(Cc1cccc(OCC(=O)OC)c1)c1nc(-c2ccccc2)c(-c2ccccc2)o1 (stereo not drawn) [Compound 9b, Ethyl α-[(3-[(methoxycarbonyl)methoxyl]phenyl]-methyl]-4,5-diphenyl-2-oxazole acetate] | 0.75
COC(=O)C(Cc1cccc(OCC(=O)OC(C)(C)C)c1)c1nc(-c2ccccc2)c(-c2ccccc2)o1 (stereo not drawn) [Compound 9c, Methyl α-[[3-(2-(1,1-dimethylethoxy-2-oxoethoxy)phenyl]methyl]-4,5-diphenyl-2-oxazole acetate] | > 32
COC(=O)COc1cccc(CC(C(=O)OC)c2nc(-c3ccccc3)c(-c3ccccc3)o2)c1 (stereo not drawn) [Compound 9d, Methyl α-[[3-(2-methoxy-2-oxoethoxy)phenyl]methyl]-4,5-diphenyl-2-oxazole acetate] | 0.6

SMILES | IC50 [µg/mL]
CC(C)OC(=O)C(Cc1cccc(OCC(=O)OC(C)(C)C)c1)c1nc(-c2ccccc2)c(-c2ccccc2)o1 (stereo not drawn) [Compound 9e, 1-Methylethyl α-[[3-[2-(1,1-dimethylethoxy)-2-oxoethoxy)phenyl]methyl]-4,5-diphenyl-2-oxazoleacetate] | > 32
COC(=O)COc1cccc(CC(C(=O)OC(C)C)c2nc(-c3ccccc3)c(-c3ccccc3)o2)c1 (stereo not shown) [Compound 9f] | 3.5 (≈ 7.01 µM)
CC(C)(C)OC(=O)COc1cccc(CC(C(N)=O)c2nc(-c3ccccc3)c(-c3ccccc3)o2)c1 (stereo not shown) [Compound 9g, (t-Butyl [3-3-amino-2-(4,5-diphenyl-2-oxazolyl)-3-oxopropyl]phenoxy acetate] | > 32
COC(=O)COc1cccc(CC(C(N)=O)c2nc(-c3ccccc3)c(-c3ccccc3)o2)c1 (stereo not drawn) [Compound 9h, Methyl[3-[α-Amino-2-(4,5-diphenyl-2-oxazolyl)-3-oxopropyl]phenoxy]acetic acid] | > 32
CNC(=O)C(Cc1cccc(OCC(=O)OC)c1)c1nc(-c2ccccc2)c(-c2ccccc2)o1 (stereo not shown) [Compound 9i, Methyl[3-[2-(4,5-diphenyl-2-oxazolyl)-3-(methylamino)-3-oxo-propyl]phenoxy]acetate] | 3.5 (≈ 7.44 µM)
COC(=O)COc1cccc(CC(C(=O)N(C)C)c2nc(-c3ccccc3)c(-c3ccccc3)o2)c1 (stereo not shown) [Compound 9j] | 16 (≈ 33 µM)
CCOC(=O)C(Cc1cccc(OCC(=O)O)c1)c1nc(-c2ccccc2)c(-c2ccccc2)o1 (stereo not drawn) [Compound 10a, Ethyl α-[[3-hydroxy-2-oxoethoxyl]phenyl]methyl]-4,5-diphenyl-2-oxazole ace tate] | 0.06 (≈ 0.127 µM)
O=C(O)COc1cccc(CC(C(=O)O)c2nc(-c3ccccc3)c(-c3ccccc3)o2)c1 (stereo not drawn) [Compound 10b, α-[[3-(2-Hydroxy-2-oxoethoxy)phenyl]methyl]-4,5-diphenyl-2-oxazoleacetic acid, disodium salt] | 7
COC(=O)C(Cc1cccc(OCC(=O)O)c1)c1nc(-c2ccccc2)c(-c2ccccc2)o1 (stereo not drawn) [Compound 10c, Methyl α-[[3-(2-hydroxy-2-oxoethoxy)phenyl]methyl]-4,5-diphenyl-2-oxazole acetate] | 0.037
CC(C)OC(=O)C(Cc1cccc(OCC(=O)O)c1)c1nc(-c2ccccc2)c(-c2ccccc2)o1 (stereo not shown) [Compound 10d] | 0.6 (≈ 1.24 µM)
NC(=O)C(Cc1cccc(OCC(=O)O)c1)c1nc(-c2ccccc2)c(-c2ccccc2)o1 (stereo not shown) [Compound 10e, [3-[3-Amino-2-(4,5-diphenyl-2-oxazolyl)-3-oxopropyl]phenoxy]acetic acid] | 1.7 (≈ 3.84 µM)
CNC(=O)C(Cc1cccc(OCC(=O)O)c1)c1nc(-c2ccccc2)c(-c2ccccc2)o1 (stereo not shown) [Compound 10f, [3-[2-(4,5-Diphenyl-2-oxazolyl)-3-(methylamino)-3-oxopropyl]phenoxy]acetic acid] | 0.32 (≈ 0.701 µM)
CN(C)C(=O)C(Cc1cccc(OCC(=O)O)c1)c1nc(-c2ccccc2)c(-c2ccccc2)o1 (stereo not shown) [Compound 10g, [3-[3-(Dimethylamino)-2-(4,5-diphenyl-2-oxazolyl)-3-oxopropyl]phenoxy]acetic acid] | 1.7 (≈ 3.61 µM)
COC(=O)COc1cccc(/C=C(\C#N)c2nc(-c3ccccc3)c(-c3ccccc3)o2)c1 [Compound 16, (E)-Methyl[3-[2-cyano-2-(4,5-diphenyl-2-oxazolyl)ethenyl]phenoxy]acetate] | 8 (≈ 18.3 µM)
N#C/C(=C\c1cccc(OCC(=O)O)c1)c1nc(-c2ccccc2)c(-c2ccccc2)o1 [Compound 17, (E)-[3-[2-cyano-2-(4,5-diphenyl-2-oxazolyl)ethenyl]phenoxy]acetic acid] | 0.11 (≈ 0.26 µM)
COC(=O)COc1cccc(CC(C#N)c2nc(-c3ccccc3)c(-c3ccccc3)o2)c1 (stereo not shown) [Compound 18] | 0.36 (≈ 0.821 µM)
N#CC(Cc1cccc(OCC(=O)O)c1)c1nc(-c2ccccc2)c(-c2ccccc2)o1 (stereo not shown) [Compound 19, [3-[2-Cyano-2-(4,5-diphenyl-2-oxazolyl)ethyl]phenoxy]acetic acid] | 0.2 (≈ 0.471 µM)

— patent US5187188A, “Oxazole carboxylic acid derivatives” (Bristol-Myers Squibb Company, priority 1992, dated 1993)
